{"source": "patent US8426202B2", "about": "“Cell culture medium” (Cellca GmbH, priority 2005, dated 2013)", "key": {"[1]": {"tested_on": "CHO cell line that expresses an antibody", "test": "Batch experiment with the substances according to the invention (Example 1)", "assay_type": "cell-based, Chinese hamster", "settings": "batch mode, substance 0.5-1 g/l, basal medium glucose 4.7 g/l, glutamine […]", "method": "Cells were stored in the gas phase of liquid nitrogen. One to two ampoules were thawed in nutrient medium preheated to 37° C. and transferred to spinner bottles, shaking flasks or T-bottles. In the first few days of cultivation the medium was changed, depending on the clone.\nDepending on the clone, cells were split either every second day or every third day or after two and three days alternately into new medium, i.e. a portion of the cell suspension was removed from culture and a smaller portion of the cell suspension was reused as inoculum for the next culture. This inoculum was made up with fresh prewarmed nutrient medium. Cells were incubated at 37° C. in an incubator with a CO2 atmosphere. An alternative for incubating cells was cultivation in an incubation chamber at 37° C., in this way cells were held in culture for several passages. A passage means a cultivation time of two to three days. At various points of time, cell suspension was taken from strain maintenance and used as inoculum for experiments. The experiments were carried out in various cultivation systems, for example in spinner bottles, T-bottles, shaking flasks, culture tubes or in controlled bioreactors.\n(§1) Feed took place at regular intervals."}, "[2]": {"tested_on": "CHO cell line that expresses an antibody", "test": "Fed-batch experiment with the substances according to the invention (Example 2, Table 2)", "assay_type": "cell-based, Chinese hamster", "parameters": "Viabil.: concentration or dose not given beside the values", "description": "as §1"}}, "note": "Values joined by “and” are separate entries in the source; they are usually repeats but may differ in a detail not shown here. Equal values may be shown once."}
{"smiles": "O=C(O)CCCCC(=O)O", "note": "[Adipic acid]", "values": [{"measurement": "Gln", "setting": "[1]; day 0", "result": 1.53, "unit": "mM"}, {"measurement": "Glucose", "setting": "[1]; day 0", "result": 4.69, "unit": "g/L"}, {"measurement": "Lactate", "setting": "[1]; day 0", "result": 0, "unit": "g/L"}, {"measurement": "NH4", "setting": "[1]; day 0", "result": 1.22, "unit": "mM"}, {"measurement": "Specific Glutamin consumption (Gln/VCD)", "setting": "[1]; day 0", "result": 1.49}, {"measurement": "Specific ammonia production (NH4/VCD)", "setting": "[1]; day 0", "result": 1.18}, {"measurement": "Specific glucose consumption (Gluc/VCD)", "setting": "[1]; day 0", "result": 4.55}, {"measurement": "Specific lactate production (Lac/VCD)", "setting": "[1]; day 0", "result": 0.00}, {"measurement": "Total Cell Density TCD", "setting": "[1]; day 0", "result": "1.07 E5/ml"}, {"measurement": "Viabil.", "setting": "[1]; day 0", "result": 96, "unit": "%"}, {"measurement": "Viable Cell Density (VCD)", "setting": "[1]; day 0", "result": "1.03 E5/ml"}, {"measurement": "Gln", "setting": "[1]; day 3", "result": 0.86, "unit": "mM"}, {"measurement": "Glucose", "setting": "[1]; day 3", "result": 4.28, "unit": "g/L"}, {"measurement": "Lactate", "setting": "[1]; day 3", "result": 0.62, "unit": "g/L"}, {"measurement": "NH4", "setting": "[1]; day 3", "result": 1.81, "unit": "mM"}, {"measurement": "Specific Glutamin consumption (Gln/VCD)", "setting": "[1]; day 3", "result": 0.12}, {"measurement": "Specific ammonia production (NH4/VCD)", "setting": "[1]; day 3", "result": 0.25}, {"measurement": "Specific glucose consumption (Gluc/VCD)", "setting": "[1]; day 3", "result": 0.60}, {"measurement": "Specific lactate production (Lac/VCD)", "setting": "[1]; day 3", "result": 0.09}, {"measurement": "Total Cell Density TCD", "setting": "[1]; day 3", "result": "7.2 E5/ml"}, {"measurement": "Viabil.", "setting": "[1]; day 3", "result": 99, "unit": "%"}, {"measurement": "Viable Cell Density (VCD)", "setting": "[1]; day 3", "result": "7.1 E5/ml"}, {"measurement": "Gln", "setting": "[1]; day 6", "result": 0.22, "unit": "mM"}, {"measurement": "Glucose", "setting": "[1]; day 6", "result": 2.95, "unit": "g/L"}, {"measurement": "Lactate", "setting": "[1]; day 6", "result": 0.93, "unit": "g/L"}, {"measurement": "NH4", "setting": "[1]; day 6", "result": 2.67, "unit": "mM"}, {"measurement": "Specific Glutamin consumption (Gln/VCD)", "setting": "[1]; day 6", "result": 0.01}, {"measurement": "Specific ammonia production (NH4/VCD)", "setting": "[1]; day 6", "result": 0.07}, {"measurement": "Specific glucose consumption (Gluc/VCD)", "setting": "[1]; day 6", "result": 0.07}, {"measurement": "Specific lactate production (Lac/VCD)", "setting": "[1]; day 6", "result": 0.02}, {"measurement": "Total Cell Density TCD", "setting": "[1]; day 6", "result": "41.6 E5/ml"}, {"measurement": "Viabil.", "setting": "[1]; day 6", "result": 98, "unit": "%"}, {"measurement": "Viable Cell Density (VCD)", "setting": "[1]; day 6", "result": "40.6 E5/ml"}, {"measurement": "Gln", "setting": "[1]; day 8", "result": 0.32, "unit": "mM"}, {"measurement": "Glucose", "setting": "[1]; day 8", "result": 1.94, "unit": "g/L"}, {"measurement": "Lactate", "setting": "[1]; day 8", "result": 0.95, "unit": "g/L"}, {"measurement": "NH4", "setting": "[1]; day 8", "result": 3, "unit": "mM"}, {"measurement": "Specific Glutamin consumption (Gln/VCD)", "setting": "[1]; day 8", "result": 0.02}, {"measurement": "Specific ammonia production (NH4/VCD)", "setting": "[1]; day 8", "result": 0.20}, {"measurement": "Specific glucose consumption (Gluc/VCD)", "setting": "[1]; day 8", "result": 0.13}, {"measurement": "Specific lactate production (Lac/VCD)", "setting": "[1]; day 8", "result": 0.06}, {"measurement": "Total Cell Density TCD", "setting": "[1]; day 8", "result": "17.1 E5/ml"}, {"measurement": "Viabil.", "setting": "[1]; day 8", "result": 87, "unit": "%"}, {"measurement": "Viable Cell Density (VCD)", "setting": "[1]; day 8", "result": "14.9 E5/ml"}, {"measurement": "Gln", "setting": "[1]; day 11", "result": 0.49, "unit": "mM"}, {"measurement": "Glucose", "setting": "[1]; day 11", "result": 0.89, "unit": "g/L"}, {"measurement": "Lactate", "setting": "[1]; day 11", "result": 1.28, "unit": "g/L"}, {"measurement": "NH4", "setting": "[1]; day 11", "result": 3.38, "unit": "mM"}, {"measurement": "Specific Glutamin consumption (Gln/VCD)", "setting": "[1]; day 11", "result": 0.05}, {"measurement": "Specific ammonia production (NH4/VCD)", "setting": "[1]; day 11", "result": 0.32}, {"measurement": "Specific glucose consumption (Gluc/VCD)", "setting": "[1]; day 11", "result": 0.08}, {"measurement": "Specific lactate production (Lac/VCD)", "setting": "[1]; day 11", "result": 0.12}, {"measurement": "Total Cell Density TCD", "setting": "[1]; day 11", "result": "23 E5/ml"}, {"measurement": "Viabil.", "setting": "[1]; day 11", "result": 46, "unit": "%"}, {"measurement": "Viable Cell Density (VCD)", "setting": "[1]; day 11", "result": "10.6 E5/ml"}, {"measurement": "Total Cell Density TCD", "setting": "[2]; day 0, fed-batch", "result": "1.5 E5/ml"}, {"measurement": "Viabil.", "setting": "[2]; day 0, fed-batch", "result": 91, "unit": "%"}, {"measurement": "Viable Cell Density (VCD)", "setting": "[2]; day 0, fed-batch", "result": "1.37 E5/ml"}, {"measurement": "Total Cell Density TCD", "setting": "[2]; day 2, fed-batch", "result": "4.4 E5/ml"}, {"measurement": "Viabil.", "setting": "[2]; day 2, fed-batch", "result": 98, "unit": "%"}, {"measurement": "Viable Cell Density (VCD)", "setting": "[2]; day 2, fed-batch", "result": "4.3 E5/ml"}, {"measurement": "Total Cell Density TCD", "setting": "[2]; day 5, fed-batch", "result": "12 E5/ml and 11.8 E5/ml"}, {"measurement": "Viabil.", "setting": "[2]; day 5, fed-batch", "result": "98% and 95%"}, {"measurement": "Viable Cell Density (VCD)", "setting": "[2]; day 5, fed-batch", "result": "11.7 E5/ml and 11.2 E5/ml"}, {"measurement": "Total Cell Density TCD", "setting": "[2]; day 8, fed-batch", "result": "40 E5/ml and 36.3 E5/ml"}, {"measurement": "Viabil.", "setting": "[2]; day 8, fed-batch", "result": "91% and 92%"}]}
